The values below come from article PMC4627230, “Identification of TAX2 peptide as a new unpredicted anti-cancer agent” (Oncotarget, 2015).

For assay [1], the system named is CD36-containing complex / activated VEGFR2. Description: CD36 co-immunoprecipitation of activated VEGFR2. Particulars: HUVECs, 100 μM for 12 h, then 30 ng/mL VEGF 5 min. The assay is classed as cell-based, human. On the procedure: Figure 3 Anti-angiogenic properties of TAX2 are mediated by TSP-1 binding to CD36 A. Expression of CD36 in HUVECs was assessed by immunoblotting (left panel) and immunofluorescence staining (right panel, red). Nuclei were counterstained with DAPI (blue). B. HUVECs were incubated with 100 μM cyclic TAX2 or in control conditions for 24 h. Then, CD36-containing complexes were co-immunoprecipitated from whole cell extracts (non-specific IgGs were used as a negative control for immunoprecipitation). Immunocomplexes were submitted to SDS-PAGE and immunoblotted (IB) by using specific antibodies for TSP-1 and CD36. The presence of TSP-1 in immunocomplexes was quantified by densitometric analysis relative to immunoprecipitated CD36. C. VEGFR2 phosphorylation induced by VEGF in the presence of TAX2. After overnight serum starvation, HUVECs were pre-treated with 100 μM TAX2 or control for 12 h, then incubated with 30 ng/mL VEGF for 5 min. […] Data are expressed as the mean ± SE (n = 3; *p < 0.05, ANOVA). […] Quantification of total tube-like network length was realized using ImageJ software E. Branching points F. and nodal structures G. were numbered using the S.CORE web-based system. Data are expressed as the mean ± SE (n = 3; *p < 0.05, ANOVA). […]

The test system of assay [2] is tumor vascularization of B16F1 melanoma in C57BL/6 mice. Nature of the assay: B16F1 melanoma tumor angiography (μCT) and CD31 immunostaining. The assay is classed as in vivo, mouse. The following applies: 10 mg/kg i.p. days 3, 5, 7. The protocol:
For the subcutaneous melanoma tumor model, suspensions of B16F1 cells (2.5 × 10^5 cells in 100 μL RPMI-1640 medium) were subcutaneously injected into the left flank of different randomized series of syngeneic C57BL/6 mice (n = 8–10 per group), as previously described. Intraperitoneal administrations of peptide (10 mg/kg mouse weight) or controls (physiological serum 0.9% (w/v) NaCl or a scrambled peptide) were performed at days 3, 5 and 7. In human pancreatic carcinoma xenograft experiments, 3 × 10^6 MIA PaCa-2 cells/mouse were implanted subcutaneously into the left flank of BALB/C athymic nude mice, then TAX2 intraperitoneal treatments (10 mg/kg mouse weight) were performed 3 times a week during 4 weeks starting at day 10 after tumor cells inoculation. Tumor volume was determined according to v = 0.5 A × B^2, where A denotes the largest dimension of the tumor and B represents the smallest dimension. At days indicated, mice were sacrificed and tumors were surgically extracted and fixed in 4% paraformaldehyde for further morphologic studies and for magnetic resonance imaging, or frozen for immunohistochemistry. Mice were also weighed every 2–3 days and daily checked for any modification in their behavior. Loss of 15% body weight was an indication for euthanasia as well as severe tumor necrosis, as it was sometimes associated with skin ulceration that would result in loss of body fluid and/or infection.
Histological analysis of formaldehyde-fixed and paraffin-embedded tumors were performed on hemalun, phloxin and saffron (HPS) stained 3 μm thick sections prepared using routine histological methods. To assess tumor-associated microvessel density (MVD), CD31 immunostaining was performed on 5 μm thick cryosections using biotin-labeled secondary antibody and streptavidin-HRP AEC detection system (Microm Microtech, Francheville, France), followed by hematein counter-coloration. Negative controls were done omitting the primary antibody. The necrotic part relative to total tumor surface for each tumor slice as well as MVD were quantified using ImageJ software.
Animals were anesthetized by isoflurane (Forene, Abbott France, Rungis, France) inhalation (3% for induction and 1–1.5% for maintenance) and then after placed in a carbon fibers bed. CT images were acquired on a dedicated small animal μCT scanner (Skyscan 1076, Bruker, Kontich, Belgium) while continuously rotating the camera by 180° with the following parameters: 50 kV, 0.5 mm Al filter, 200 μA source current, 35 μm isotropic resolution, 180 ms exposure time, 4 projection images per 0.7° rotation step and a retrospective synchronization. The projections were reconstructed using a filtered backprojection algorithm using Skyscan software (NRecon, Skyscan). For tumor angiography analysis, an alkaline earth-based nanoparticulate contrast agent (Viscover ExiTron nano 12000, Miltenyi Biotec, Paris, France) was injected in the mouse tail vein. Mice were imaged during the next 30 min following injection, a period during which no reduction in contrast was observed. Analysis of reconstructed images and quantification of the vascular network were performed using Amira 5.4.3 software.

The mark [3] stands for this setting: μCT angiography, representative of n = 5.

For “CEVSQLLKGDAC (disulfide) [TAX2, CD47-derived cyclic disulfide dodecapeptide …]”, the “association of activated VEGFR2 to a CD36-containing complex” value in assay [1] is given as “association of activated VEGFR2 to a CD36-containing complex”. In addition, the “tumor vasculature appearance in 3D reconstruction, day 14” value in assay [2] was “highly anarchic and discontinuous, only at the tumor surface, surrounding a central hemorrhagic area”. In assay [2] (tumor cryosections, n = 6), the “blood vessel size (CD31)” value is “diminution in vessel size” and the “diminution in intratumoral MVD (CD31)” value is reported as 60%. In assay [2] (setting [3]), the “blood vessels within tumors, day 7” value is reported as “undetectable”; the “central vascular network within tumors, day 14” value was “still lacking and a wide hemorrhagic area corresponding to the previously described necrotic zone was observed”; the “intratumoral vascularization, day 10” value is recorded as “restricted to tumor periphery”. For the same sequence, in assay [2] (μCT day 14), the “length and diameter of tumor blood vessels” value was “significantly decreased both the length and diameter of blood vessels”; the “reduction in blood vessel mean volume” value was 2 fold.
